Holding throughout (experiment): biochemical
Assay [1] has as its target JNK1 (Homo sapiens, UniProt P45983).
For assay [2], the target named is T1, VRK1 (Homo sapiens, UniProt Q99986).
T1 sequence (Q99986 1-396): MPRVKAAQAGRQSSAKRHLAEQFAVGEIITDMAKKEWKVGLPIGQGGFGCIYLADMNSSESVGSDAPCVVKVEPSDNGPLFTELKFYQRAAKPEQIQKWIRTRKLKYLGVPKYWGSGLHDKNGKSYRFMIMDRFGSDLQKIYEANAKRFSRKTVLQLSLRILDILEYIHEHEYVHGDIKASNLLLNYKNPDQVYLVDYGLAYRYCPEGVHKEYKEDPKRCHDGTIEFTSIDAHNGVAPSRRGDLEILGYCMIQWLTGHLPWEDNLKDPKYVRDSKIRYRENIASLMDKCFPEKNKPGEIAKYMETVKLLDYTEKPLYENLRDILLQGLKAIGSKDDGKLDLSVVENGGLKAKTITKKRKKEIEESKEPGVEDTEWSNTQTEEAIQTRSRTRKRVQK

The target of assay [3] is T2, Haspin (Homo sapiens, UniProt Q8TF76).
T2 sequence (Q8TF76 1-798): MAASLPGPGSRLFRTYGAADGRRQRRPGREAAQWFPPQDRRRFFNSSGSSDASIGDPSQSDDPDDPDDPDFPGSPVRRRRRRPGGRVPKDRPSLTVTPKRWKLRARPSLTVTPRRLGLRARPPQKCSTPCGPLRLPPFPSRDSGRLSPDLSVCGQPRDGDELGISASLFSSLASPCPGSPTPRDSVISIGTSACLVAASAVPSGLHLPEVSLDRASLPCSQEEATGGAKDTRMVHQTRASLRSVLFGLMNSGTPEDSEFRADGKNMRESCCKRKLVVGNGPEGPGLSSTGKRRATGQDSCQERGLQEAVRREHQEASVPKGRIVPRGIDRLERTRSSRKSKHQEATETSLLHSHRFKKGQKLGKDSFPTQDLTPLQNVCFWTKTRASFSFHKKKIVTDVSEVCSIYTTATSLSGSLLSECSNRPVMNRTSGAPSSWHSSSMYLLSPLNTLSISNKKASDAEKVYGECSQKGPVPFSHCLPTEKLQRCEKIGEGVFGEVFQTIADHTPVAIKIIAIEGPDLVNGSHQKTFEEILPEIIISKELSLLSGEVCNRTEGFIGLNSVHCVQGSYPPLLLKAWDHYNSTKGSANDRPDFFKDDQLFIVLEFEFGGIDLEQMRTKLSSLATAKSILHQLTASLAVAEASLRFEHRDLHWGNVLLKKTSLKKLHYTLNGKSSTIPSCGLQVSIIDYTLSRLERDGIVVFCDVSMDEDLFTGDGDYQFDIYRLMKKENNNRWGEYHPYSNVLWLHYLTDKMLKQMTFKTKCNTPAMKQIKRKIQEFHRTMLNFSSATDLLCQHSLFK

The target of assay [4] is JNK2 (Homo sapiens, UniProt P45984).
Sequence of JNK2 (P45984 whole entry): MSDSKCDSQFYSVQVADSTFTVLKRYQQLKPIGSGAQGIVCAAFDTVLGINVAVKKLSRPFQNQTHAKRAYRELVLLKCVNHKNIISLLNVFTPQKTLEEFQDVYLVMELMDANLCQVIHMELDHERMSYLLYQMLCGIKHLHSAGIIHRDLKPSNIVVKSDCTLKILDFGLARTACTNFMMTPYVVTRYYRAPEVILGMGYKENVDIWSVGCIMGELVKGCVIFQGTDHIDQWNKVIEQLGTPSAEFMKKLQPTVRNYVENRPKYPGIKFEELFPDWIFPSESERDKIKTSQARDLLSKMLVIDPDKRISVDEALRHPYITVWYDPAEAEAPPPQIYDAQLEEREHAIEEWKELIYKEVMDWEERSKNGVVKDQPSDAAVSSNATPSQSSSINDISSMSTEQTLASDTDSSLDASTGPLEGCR
The target of assay [5] is T3, BMX (Homo sapiens, UniProt P51813).
T3 sequence (P51813 1-675): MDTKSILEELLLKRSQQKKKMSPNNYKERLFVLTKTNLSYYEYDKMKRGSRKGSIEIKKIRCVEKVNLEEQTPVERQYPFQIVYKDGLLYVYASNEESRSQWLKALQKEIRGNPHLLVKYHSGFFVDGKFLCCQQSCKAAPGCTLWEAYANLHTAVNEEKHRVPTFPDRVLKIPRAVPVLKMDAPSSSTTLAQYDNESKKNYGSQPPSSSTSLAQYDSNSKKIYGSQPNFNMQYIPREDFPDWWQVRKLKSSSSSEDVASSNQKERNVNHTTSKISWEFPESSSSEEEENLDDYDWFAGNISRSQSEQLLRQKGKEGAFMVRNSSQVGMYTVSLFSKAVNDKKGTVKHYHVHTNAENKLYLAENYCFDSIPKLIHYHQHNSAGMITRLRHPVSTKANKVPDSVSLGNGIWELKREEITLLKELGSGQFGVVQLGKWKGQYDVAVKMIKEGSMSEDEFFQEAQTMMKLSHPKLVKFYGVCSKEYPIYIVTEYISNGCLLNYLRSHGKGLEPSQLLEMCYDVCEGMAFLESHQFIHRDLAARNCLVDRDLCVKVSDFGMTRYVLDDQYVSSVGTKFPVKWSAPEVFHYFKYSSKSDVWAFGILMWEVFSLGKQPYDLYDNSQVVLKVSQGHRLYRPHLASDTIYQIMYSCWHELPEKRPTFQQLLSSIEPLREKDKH

In assay [6] the target is DAPK1 (Homo sapiens, UniProt P53355).
Sequence of DAPK1 (P53355 whole entry): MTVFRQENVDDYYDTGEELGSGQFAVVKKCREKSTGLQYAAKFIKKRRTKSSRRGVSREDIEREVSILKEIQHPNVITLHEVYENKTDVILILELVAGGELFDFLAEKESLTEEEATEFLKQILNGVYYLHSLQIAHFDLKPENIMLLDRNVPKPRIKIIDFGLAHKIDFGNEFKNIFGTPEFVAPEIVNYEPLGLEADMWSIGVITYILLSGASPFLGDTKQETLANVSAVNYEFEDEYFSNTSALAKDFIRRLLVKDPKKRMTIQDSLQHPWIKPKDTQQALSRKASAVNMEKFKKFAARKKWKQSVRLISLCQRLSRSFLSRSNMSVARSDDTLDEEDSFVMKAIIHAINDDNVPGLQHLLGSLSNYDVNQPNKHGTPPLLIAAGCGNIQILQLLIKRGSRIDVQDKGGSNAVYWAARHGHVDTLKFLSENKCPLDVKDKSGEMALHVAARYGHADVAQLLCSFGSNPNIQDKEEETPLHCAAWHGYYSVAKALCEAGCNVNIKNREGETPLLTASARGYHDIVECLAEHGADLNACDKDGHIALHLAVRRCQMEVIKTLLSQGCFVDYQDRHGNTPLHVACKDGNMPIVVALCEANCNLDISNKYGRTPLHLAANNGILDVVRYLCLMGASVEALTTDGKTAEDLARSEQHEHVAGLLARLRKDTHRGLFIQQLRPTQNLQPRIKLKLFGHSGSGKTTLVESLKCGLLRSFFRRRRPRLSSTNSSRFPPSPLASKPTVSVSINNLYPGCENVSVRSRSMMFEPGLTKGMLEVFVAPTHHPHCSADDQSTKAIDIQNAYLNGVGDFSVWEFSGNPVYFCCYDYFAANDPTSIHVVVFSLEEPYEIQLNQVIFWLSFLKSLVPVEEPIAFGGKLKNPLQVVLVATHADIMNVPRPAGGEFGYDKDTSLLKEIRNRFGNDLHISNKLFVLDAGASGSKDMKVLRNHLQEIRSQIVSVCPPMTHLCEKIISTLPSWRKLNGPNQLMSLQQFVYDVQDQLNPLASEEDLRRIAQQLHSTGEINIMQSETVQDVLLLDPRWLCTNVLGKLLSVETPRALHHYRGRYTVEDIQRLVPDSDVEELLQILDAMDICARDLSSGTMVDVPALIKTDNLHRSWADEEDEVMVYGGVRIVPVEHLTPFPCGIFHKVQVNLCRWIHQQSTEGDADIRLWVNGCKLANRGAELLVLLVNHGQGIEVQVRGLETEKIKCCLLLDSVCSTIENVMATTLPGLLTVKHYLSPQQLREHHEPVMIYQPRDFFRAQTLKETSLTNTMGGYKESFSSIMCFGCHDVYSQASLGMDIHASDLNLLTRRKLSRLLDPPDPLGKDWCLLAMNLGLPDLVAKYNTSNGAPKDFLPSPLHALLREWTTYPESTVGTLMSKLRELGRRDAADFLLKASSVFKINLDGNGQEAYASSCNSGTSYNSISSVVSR
Assay [7] concerns the target RSK1b (Homo sapiens, UniProt Q15418).
Assay [8] has as its target CaMK2b (Homo sapiens, UniProt Q13554).
The target of assay [9] is JNK3 (Homo sapiens, UniProt P53779).
Sequence of JNK3 (P53779 whole entry): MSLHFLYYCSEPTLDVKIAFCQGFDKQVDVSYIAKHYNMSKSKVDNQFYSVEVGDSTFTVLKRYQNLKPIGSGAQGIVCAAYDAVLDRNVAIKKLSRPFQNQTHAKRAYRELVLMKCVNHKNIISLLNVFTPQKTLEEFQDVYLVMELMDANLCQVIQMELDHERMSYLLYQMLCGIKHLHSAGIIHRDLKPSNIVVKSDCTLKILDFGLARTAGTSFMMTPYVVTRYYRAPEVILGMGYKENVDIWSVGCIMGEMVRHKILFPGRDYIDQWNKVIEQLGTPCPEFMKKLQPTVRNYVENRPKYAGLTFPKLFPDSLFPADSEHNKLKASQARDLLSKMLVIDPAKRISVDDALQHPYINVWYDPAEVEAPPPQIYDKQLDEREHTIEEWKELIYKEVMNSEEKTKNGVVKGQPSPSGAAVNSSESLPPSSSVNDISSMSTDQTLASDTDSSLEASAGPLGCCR

Like-named read-outs stand apart in the source and are kept apart here.

Sequence of RSK1b (Q15418 whole entry): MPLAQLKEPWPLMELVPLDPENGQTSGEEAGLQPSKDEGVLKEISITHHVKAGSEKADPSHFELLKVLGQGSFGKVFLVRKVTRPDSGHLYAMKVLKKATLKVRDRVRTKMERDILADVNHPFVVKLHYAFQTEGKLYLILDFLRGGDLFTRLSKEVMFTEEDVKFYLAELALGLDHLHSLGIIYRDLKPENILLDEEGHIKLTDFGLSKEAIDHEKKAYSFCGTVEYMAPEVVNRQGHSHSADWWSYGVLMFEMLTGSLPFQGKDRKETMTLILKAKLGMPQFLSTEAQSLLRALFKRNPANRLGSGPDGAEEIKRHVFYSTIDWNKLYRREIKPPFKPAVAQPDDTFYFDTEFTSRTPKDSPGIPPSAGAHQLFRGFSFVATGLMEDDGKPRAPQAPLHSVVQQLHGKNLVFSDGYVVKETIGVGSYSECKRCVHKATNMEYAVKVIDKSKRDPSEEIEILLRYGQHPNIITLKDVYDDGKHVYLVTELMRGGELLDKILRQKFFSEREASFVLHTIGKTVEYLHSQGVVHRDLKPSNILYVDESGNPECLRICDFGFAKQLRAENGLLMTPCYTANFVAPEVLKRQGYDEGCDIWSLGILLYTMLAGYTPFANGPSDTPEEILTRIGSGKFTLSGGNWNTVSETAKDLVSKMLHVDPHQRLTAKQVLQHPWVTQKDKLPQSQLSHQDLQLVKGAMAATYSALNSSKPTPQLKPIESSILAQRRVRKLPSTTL
Sequence of JNK1 (P45983 whole entry): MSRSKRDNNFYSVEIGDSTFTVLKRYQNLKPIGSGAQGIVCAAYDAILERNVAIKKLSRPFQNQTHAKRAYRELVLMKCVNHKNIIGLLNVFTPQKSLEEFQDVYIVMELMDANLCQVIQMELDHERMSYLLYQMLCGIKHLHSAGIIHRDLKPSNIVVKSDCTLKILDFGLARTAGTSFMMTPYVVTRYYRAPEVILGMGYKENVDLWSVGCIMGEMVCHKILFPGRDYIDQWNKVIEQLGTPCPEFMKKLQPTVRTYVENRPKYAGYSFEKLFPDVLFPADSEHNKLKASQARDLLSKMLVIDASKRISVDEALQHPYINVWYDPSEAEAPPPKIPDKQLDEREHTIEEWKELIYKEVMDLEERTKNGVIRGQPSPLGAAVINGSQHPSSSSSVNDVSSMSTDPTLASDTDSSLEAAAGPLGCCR
Sequence of CaMK2b (Q13554 whole entry): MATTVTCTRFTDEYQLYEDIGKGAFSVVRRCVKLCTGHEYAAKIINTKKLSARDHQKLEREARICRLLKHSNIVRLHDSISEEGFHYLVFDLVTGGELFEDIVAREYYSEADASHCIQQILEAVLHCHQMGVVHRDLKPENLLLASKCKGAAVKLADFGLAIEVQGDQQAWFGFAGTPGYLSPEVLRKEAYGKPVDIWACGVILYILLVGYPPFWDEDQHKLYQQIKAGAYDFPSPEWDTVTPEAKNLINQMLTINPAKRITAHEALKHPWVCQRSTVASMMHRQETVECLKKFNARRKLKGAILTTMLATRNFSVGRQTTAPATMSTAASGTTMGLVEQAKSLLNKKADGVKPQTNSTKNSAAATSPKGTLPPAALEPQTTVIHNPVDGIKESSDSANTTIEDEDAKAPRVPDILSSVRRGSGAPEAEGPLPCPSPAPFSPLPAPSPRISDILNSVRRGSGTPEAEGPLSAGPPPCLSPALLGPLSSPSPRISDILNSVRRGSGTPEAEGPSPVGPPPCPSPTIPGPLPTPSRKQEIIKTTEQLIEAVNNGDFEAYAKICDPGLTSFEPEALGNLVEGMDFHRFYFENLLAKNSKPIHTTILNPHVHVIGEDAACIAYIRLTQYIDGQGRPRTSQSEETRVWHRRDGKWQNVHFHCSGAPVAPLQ

Consider `CNc1ncc2cc(-c3cc(Cl)ccc3Cl)c(=O)n(CCCCN)c2n1` [compound 8, 8-(4-Aminobutyl)-6-(2,5-dichlorophenyl)-2-(methylamino)pyrido[2,3-d]pyrimidin-7(8H)-one], for which the ΔTm at 10 µM in [1] (read-out: dTm 8) stood at 1.4 °C; in assay [2] (read-out: dTm 8), 0.7 °C; in assay [3] (read-out: dTm 8), 0.6 °C; in [4] (read-out: dTm 8), 1.2 °C; in [5] (read-out: dTm 8), 4 °C; in assay [6] (read-out: dTm 8), 0.1 °C. Further, the ΔTm at 10 µM amounted to 6.9 °C in assay [7] (read-out: dTm 8), 0.2 °C in assay [8] (read-out: dTm 8) and 0.8 °C in assay [9] (read-out: dTm 8).

In the case of `CNc1ncc2cc(-c3cc(Br)ccc3Br)c(=O)n(CCCCN)c2n1` [compound 11, 8-(4-Aminobutyl)-6-(2,5-dibromophenyl)-2-(methylamino)pyrido[2,3-d]pyrimidin-7(8H)-one], the ΔTm at 10 µM was determined as 0.9 °C in [1] (read-out: dTm 11); 0.5 °C in assay [2] (read-out: dTm 11); 0.7 °C in assay [3] (read-out: dTm 11); 1.2 °C in [4] (read-out: dTm 11); 4.2 °C in assay [5] (read-out: dTm 11); 0.2 °C in assay [6] (read-out: dTm 11). The ΔTm at 10 µM worked out at 5.8 °C in [7] (read-out: dTm 11), 0.3 °C in assay [8] (read-out: dTm 11) and 1.1 °C in assay [9] (read-out: dTm 11).

As for `CNc1ncc2cc(-c3cc(C(F)(F)F)ccc3Cl)c(=O)n(CCCCN)c2n1` [compound 9, 8-(4-Aminobutyl)-6-(2-chloro-5-(trifluoromethyl)phenyl)-2-(methylamino)pyrido[2,3-d]pyrimidin-7(8H)-one], the ΔTm at 10 µM in [1] (read-out: dTm 9) came to 0.6 °C; in [2] (read-out: dTm 9), 0.1 °C; in assay [3] (read-out: dTm 9), 0.1 °C; in assay [4] (read-out: dTm 9), 1 °C; in assay [5] (read-out: dTm 9) it was 3.2 °C; in [6] (read-out: dTm 9) it was 0.1 °C. Besides, the ΔTm at 10 µM came out at 4.5 °C in assay [7] (read-out: dTm 9), 0.1 °C in assay [8] (read-out: dTm 9) and 1.3 °C in assay [9] (read-out: dTm 9).

As for `CNc1ncc2cc(-c3cc(F)c(-c4cccc(C)n4)cc3F)c(=O)n(CCCCN)c2n1` [compound 12, 8-(4-Aminobutyl)-6-(2,5-difluoro-4-(6-methylpyridin-2-yl)phenyl)-2-(methylamino)pyrido[2,3-d]pyrimidin-7(8H)-one], the ΔTm at 10 µM was 0.7 °C in assay [1] (read-out: dTm 12); 0.3 °C in [2] (read-out: dTm 12); -0.4 °C in assay [3] (read-out: dTm 12); 0.2 °C in assay [4] (read-out: dTm 12); 3.6 °C in assay [5] (read-out: dTm 12); -0.9 °C in assay [6] (read-out: dTm 12). The ΔTm at 10 µM in assay [7] (read-out: dTm 12) was -0.2 °C; in assay [8] (read-out: dTm 12), -0.4 °C; in assay [9] (read-out: dTm 12), 0.4 °C.

`CNc1ncc2cc(-c3cc(Cl)ccc3Br)c(=O)n(CCCCN)c2n1` [compound 10, 8-(4-Aminobutyl)-6-(2-bromo-5-chlorophenyl)-2-(methylamino)pyrido[2,3-d]pyrimidin-7(8H)-one]: the ΔTm at 10 µM in [1] (read-out: dTm 10) came out at 0.8 °C; in [2] (read-out: dTm 10), 0.7 °C; in assay [3] (read-out: dTm 10), 0.6 °C; in assay [4] (read-out: dTm 10), 0.9 °C; in [5] (read-out: dTm 10) it was 3.9 °C; in assay [6] (read-out: dTm 10), 0.1 °C. The ΔTm at 10 µM in [7] (read-out: dTm 10) came out at 6.2 °C; in assay [8] (read-out: dTm 10), 0.3 °C; in assay [9] (read-out: dTm 10), 1.3 °C.

The values above are taken from publication doi:10.1101/2023.03.24.534094v2 (biorxiv, 2023).
